Assay results reported in patent US10913772B2, “Peptide for preventing or treating inflammatory diseases and use thereof” (KINE SCIENCES Co., Ltd., priority 2016, dated 2021).
Values joined by “and” are separate entries in the source; they are usually repeats but may differ in a detail not shown here. Identical values can stand only once. No end group written: not given here.

Assays:
[1] = tested on: collagen-induced arthritis (CIA) mouse model; assay: Arthritis progression index in collagen-induced arthritis mouse model; assay type: in vivo, mouse (DBA/1J); set-up: key: 0-4 per leg, summed over four legs (0-16), mean of two observers; settings: Table 3, methotrexate 1 mg/kg
Description: In Example 2, using a collagen-induced arthritis mouse model in the following document, a therapeutic effect of a RGD dimer for a representative inflammatory disease, rheumatoid arthritis was confirmed (Nat Protoc. 2007; 2(5):1269-75.).
A collagen-induced arthritis (CIA) mouse model was prepared as follows, as an autoimmune disease-based arthritis model with characteristics similar to human rheumatoid arthritis.
First, a bovine type II collagen (Chondrex Corporation, USA) and a Freund's complete adjuvant (Chondrex Corporation, USA) were mixed at a ratio of 1:1 and emulsified, and then 50 μl of the emulsified collagen solution was injected intradermally into the tail of a 6-week-old DBA/1J mouse to induce primary immunization. At two weeks after the primary immunization, the bovine type II collagen and the Freund's complete adjuvant were mixed at a ratio of 1:1 and emulsified, and then 50 μl of the emulsified collagen solution was injected intradermally into the tail of the mouse again to induce secondary immunization (boosting).
After the secondary immunization, from the next day, the peptide of the present invention ([…] (1 μmole)) was administered intraperitoneally three times a week and a PBS-treated group was used as a control (Vehicle control). The preparation process of the collagen-induced arthritis mouse model and the administration time of the peptide were schematically illustrated in FIG. 1.
In order to investigate the development of arthritis progression according to the peptide treatment of the present invention, the deepening degree of arthritis with time was measured by evaluating an arthritis progression index. Two observers who were unaware of the specific experimental conditions evaluated progression of arthritis three times a week. In this case, the arthritis progression index was evaluated by 0 to 4 scores per leg according to an arthritis progression evaluation standard by Rossoliniec and the like in Table 1 below to be represented by a total of 0 to 16 scores (a sum of four legs), and thereafter, two observers calculated an average value of the evaluated results to digitize the severity of arthritis.
In order to confirm the efficacy for each treatment concentration of the peptide according to the present invention, by using the same method as Example 2-2, an arthritis therapeutic effect according to the peptide treatment at various concentrations (0.1 μmole, 1 μmole, and 10 μmole) was evaluated by the arthritis progression index.
Methotrexate (MTX), one of drugs which are used as arthritis therapeutic agents in a current clinical practice, had excellent anti-inflammatory and arthritis therapeutic effects as an immunodepressant, but may have side effects such as toxicity to normal cells, oral ulcer, alopecia, interstitial pneumonia, bone marrow suppression, and the like. As a result, the methotrexate is known as a drug that needs to pay close attention after medication with sufficient medication counseling. As a result, the arthritis therapeutic effect according to the peptide treatment at various concentrations was compared with that of the case of treating methotrexate (1 mg/kg).

[2] = Evaluation of toxicity: mortality and change in body weight of mouse; assay type: in vivo; settings: for Body weight: i.p., individual mice
Description: In Example 3, in order to confirm the toxicity of the peptide of the present invention, the RGD dimer was intraperitoneally administered to mouse at various concentrations (0.1 μmole, 1 μmole, and 10 μmole), and then the mortality and a change in body weight of each mouse were measured. On the other hand, as a control, a non-administration group (Normal) and a PBS-treated group (PBS) were used.

With CN(Cc1cnc2nc(N)nc(N)c2n1)c1ccc(C(=O)N[C@@H](CCC(=O)O)C(=O)O)cc1 [MTX, methotrexate] the arthritis progression index ([1]; day 20) was 0.8, the arthritis progression index ([1]; day 22) was 0.8 and the arthritis progression index ([1]; day 24) was 1.0. The arthritis progression index ([1]; day 27) was 1.2, the arthritis progression index ([1]; day 29) was 1.4 and the arthritis progression index ([1]; day 31) was 1.8. It also gave an arthritis progression index ([1]; day 34) of 1.8 and an arthritis progression index ([1]; day 36) of 3.2.

With RDGRDG [RDG dimer, RDGRDG] the “mortality of the mouse” value ([2]; 0.1 μmole, 1 μmole or 10 μmole, intraperitoneally) was “not observed”, the Body weight ([2]; 10 umole, day 17) was 23.74 g and 20.75 g and 18.48 g and the Body weight ([2]; 10 umole, day 21) was 23.8 g and 21.9 g and 20.5 g. For the same compound, the Body weight ([2]; 10 umole, day 24) was 24.2 g and 22 g and 20.1 g, the Body weight ([2]; 10 umole, day 27) was 23.8 g and 21.6 g and 20.5 g and the Body weight ([2]; 10 umole, day 31) was 23.9 g and 22 g. For the same compound, the Body weight ([2]; 10 umole, day 34) was 24.8 g and 22.3 g, the “difference in body weight from the control” value ([2]; all the concentrations (0.1, 1 and 10 μmole), intraperitoneally) was “did not have a large difference” and the Body weight ([2]; first group printed 1 umole, day 17) was 21.65 g and 24.51 g and 18.25 g and 21.88 g and 22.3 g and 21.96 g and 18.84 g. The Body weight ([2]; first group printed 1 umole, day 21) was 21.8 g and 24.5 g and 18.4 g and 21.5 g and 22 g (2×) and 19.6 g, the Body weight ([2]; first group printed 1 umole, day 24) was 21.8 g and 24.9 g and 18.2 g and 22.4 g and 22.8 g and 21.3 g and 20.6 g and the Body weight ([2]; first group printed 1 umole, day 27) was 22.2 g and 25 g and 18.1 g and 22.7 g and 22.9 g and 21.3 g and 20.5 g. For the same compound, the Body weight ([2]; first group printed 1 umole, day 31) was 22.4 g and 25.3 g and 18.8 g and 22.3 g and 22.6 g and 21.2 g and 20.7 g, the Body weight ([2]; first group printed 1 umole, day 34) was 23.1 g (2×) and 26.1 g and 19 g and 23 g and 22.6 g and 21.8 g and the Body weight ([2]; second group printed 1 umole, day 17) was 22.7 g (2×) and 21.3 g and 18.96 g and 20.63 g and 20.61 g and 21.07 g. For the same compound, the Body weight ([2]; second group printed 1 umole, day 21) was 22.3 g and 22.4 g and 19.6 g and 20.6 g and 21.1 g and 21.3 g and 22.6 g, the Body weight ([2]; second group printed 1 umole, day 24) was 23.9 g and 22.2 g and 20 g and 20.8 g and 21.4 g and 21.7 g and 23.2 g and the Body weight ([2]; second group printed 1 umole, day 27) was 24.4 g and 22.3 g and 20.1 g and 21.2 g and 21.3 g and 21.7 g and 23.3 g. For the same compound, the Body weight ([2]; second group printed 1 umole, day 31) was 22.6 g and 22.7 g and 20.2 g and 20.1 g and 21.3 g and 22.2 g and 23.4 g and the Body weight ([2]; second group printed 1 umole, day 34) was 23 g and 23.6 g and 20.5 g and 18.6 g and 20.6 g and 22.5 g and 24.2 g.
